pIC50: −log10 of the molar value.
target: one or more of HDAC-4, HDAC-5, HDAC-6, HDAC-7, HDAC-8, HDAC-9, HDAC-10 and HDAC-11; assay: Inhibition of histone deacetylase enzymatic activity (summary statement over isoforms); assay type: biochemical; settings: Table 3, selected examples; HDAC isoform not given
Method in brief: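 Activity was measured as deacetylation of the fluorogenic substrate Boc-Lys(trifluoroacetyl)-AMC over 20-30 min at 37 °C, after a 5 min room-temperature preincubation of enzyme with compound. Trypsin (1 mg/mL) with a reference HDAC inhibitor ended the reaction.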

Row | pIC50 | Structure (SMILES)
1 | > 6.00 | Cc1[nH]c2ccccc2c1CN1CCC(Oc2ccc(C(C(=O)NO)c3ccccc3)cc2)CC1 (stereo not shown) [Compound 5-132, N-hydroxy-2-(4-(1-((2-methyl-1H-indol-3-yl)methyl)piperidin-4-yloxy)phenyl)-2-phenylacetamide]
2 | > 6.00 | O=C(NO)C(c1ccccc1)c1ccc(N2C[C@@H]3C[C@]3(c3ccc(Cl)c(Cl)c3)C2)cc1 (stereo partly drawn) [Compound 6-16, 2-(4-((1S,5R)-1-(3,4-dichlorophenyl)-3-azabicyclo[3.1.0]hexan-3-yl)phenyl)-N-hydroxy-2-phenylacetamide]
3 | > 6.00 | O=C(NO)C(c1ccc(N2CCOCC2)cc1)c1ccccc1F (stereo not shown) [Compound 6-17, 2-(2-fluorophenyl)-N-hydroxy-2-(4-morpholinophenyl)acetamide]
4 | 4.82 to 6.00 | Cc1ccc(S(=O)(=O)N2CCN(C3(C(=O)NO)CCc4ccccc43)CC2)cc1 (stereo not shown) [Compound 6-18, N-hydroxy-1-(4-(p-tolylsulfonyl)piperazin-1-yl)-2,3-dihydro-1H-indene-1-carboxamide]
5 | > 6.00 | Cc1ccccc1C(C(=O)NO)c1ccc(N2CCOCC2)cc1 (stereo not shown) [Compound 6-19, N-hydroxy-2-(4-morpholionphenyl)-2-o-tolylacetamide]
6 | 4.82 to 6.00 | O=C(NO)C(c1ccc(N2CCOCC2)cc1)c1cccc(OC(F)(F)F)c1 (stereo not shown) [Compound 6-20, N-hydroxy-2-(4-morpholinophenyl)-2-(3-(trifluoromethoxy)phenyl)acetamide]
7 | 4.82 to 6.00 | O=C(NO)C(c1ccc(N2CCOCC2)cc1)c1cccc(C(F)(F)F)c1 (stereo not shown) [Compound 6-21, N-hydroxy-2-(4-morpholinophenyl)-2-(3-(trifluoromethyl)phenyl)acetamide]
8 | > 6.00 | O=C(NO)C(c1ccc(N2CCOCC2)cc1)c1cccc(F)c1F (stereo not shown) [Compound 6-22]
9 | > 6.00 | O=C(NO)C(c1ccc(N2CCOCC2)cc1)c1cccc(O)c1 (stereo not shown) [Compound 6-23, N-hydroxy-2-(3-hydroxyphenyl)-2-(4-morpholinophenyl)acetamide]
10 | 4.82 to 6.00 | O=C(NO)C(c1ccc(N2CCOCC2)cc1)c1c(F)cccc1F (stereo not shown) [Compound 6-24, 2-(2,6-difluorophenyl)-N-hydroxy-2-(4-morpholinophenyl)acetamide]
11 | > 6.00 | CSc1cccc(C(C(=O)NO)c2ccc(N3CCOCC3)cc2)c1 (stereo not shown) [Compound 6-25, N-hydroxy-2-(3-(methylthio)phenyl)-2-(4-morpholinophenyl)acetamide]
12 | 4.82 to 6.00 | O=C(NO)C(c1ccc(N2CCOCC2)cc1)c1ccccc1O (stereo not shown) [Compound 6-26, N-hydroxy-2-(2-hydroxyphenyl)-2-(4-morpholinophenyl)acetamide]
13 | 4.82 to 6.00 | O=C(NO)C(Sc1ncccn1)c1ccccc1 (stereo not shown) [Compound 6-29, N-hydroxy-2-phenyl-2-(pyrimidin-2-ylthio)acetamide]
14 | > 6.00 | CCN(CC)c1ccc(C(C(=O)NO)c2cccc(F)c2)cc1 (stereo not shown) [Compound 6-37]
15 | 4.82 to 6.00 | O=C(NO)C(Sc1cccc(O)c1)c1ccccc1 (stereo not shown) [Compound 6-38, N-hydroxy-2-(3-hydroxyphenylthio)-2-phenylacetamide]
16 | > 6.00 | O=C(NO)C(c1ccccc1)c1ccc(N2CCC2)cc1 (stereo not shown) [Compound 6-39, 2-(4-(azetidin-1-yl)phenyl)-N-hydroxy-2-phenylacetamide]
17 | > 6.00 | CN(CCc1ccccc1)c1ccc(C(C(=O)NO)c2ccccc2)cc1 (stereo not shown) [Compound 6-40, N-hydroxy-2-(4-(methyl(phenethyl)amino)phenyl)-2-phenylacetamide]
18 | 4.82 to 6.00 | COc1ccc(-c2ccnc(SC(C(=O)NO)c3ccccc3)n2)cc1 (stereo not shown) [Compound 6-42, N-hydroxy-2-(4-(4-methoxyphenyl)pyrimidin-2-ylthio)-2-phenylacetamide]

Row | pIC50 | Structure (SMILES)
19 | > 6.00 | CCN(CCN(C)C)c1ccc(C(C(=O)NO)c2ccccc2)cc1 (stereo not shown) [Compound 6-43]
20 | > 6.00 | CCN(CCOC)c1ccc(C(C(=O)NO)c2ccccc2)cc1 (stereo not shown) [Compound 6-46, 2-(4-(ethyl(2-methoxyethyl)amino)phenyl)-N-hydroxy-2-phenylacetamide]
21 | 4.82 to 6.00 | Cc1ccccc1OC(C(=O)NO)c1ccccc1 (stereo not shown) [Compound 7-1, N-hydroxy-2-phenyl-2-(o-tolyloxy)acetamide]
22 | 4.82 to 6.00 | Cc1cccc(OC(C(=O)NO)c2ccccc2)c1 (stereo not shown) [Compound 7-2, N-hydroxy-2-phenyl-2-(m-tolyloxy)acetamide]
23 | 4.82 to 6.00 | O=C(NO)C(Oc1ccccc1F)c1ccccc1 (stereo not shown) [Compound 7-5, 2-(2-fluorophenoxy)-N-hydroxy-2-phenylacetamide]
24 | 4.82 to 6.00 | COc1ccc(OC(C(=O)NO)c2ccccc2)cc1 (stereo not shown) [Compound 7-11, N-hydroxy-2-(4-methoxyphenoxy)-2-phenylacetamide]
25 | 4.82 to 6.00 | O=C(NO)C(Oc1ccc2c(c1)OCO2)c1ccccc1 (stereo not shown) [Compound 7-17, 2-(benzo[d][1,3]dioxol-5-yloxy)-N-hydroxy-2-phenylacetamide]
26 | 4.82 to 6.00 | CSc1ccc(OC(C(=O)NO)c2ccccc2)cc1 (stereo not shown) [Compound 7-18, N-hydroxy-2-(4-(methylthio)phenoxy)-2-phenylacetamide]
27 | 4.82 to 6.00 | Cc1ccc(OC(C(=O)NO)c2ccccc2)c(Cl)c1 (stereo not shown) [Compound 7-20, 2-(2-chloro-4-methylphenoxy)-N-hydroxy-2-phenylacetamide]
28 | > 6.00 | O=C(NO)C(Oc1cccc2ccccc12)c1ccccc1 (stereo not shown) [Compound 7-31, N-hydroxy-2-(naphthalen-1-yloxy)-2-phenylacetamide]
29 | 4.82 to 6.00 | O=C(NO)C(Oc1ccc(F)cc1Cl)c1ccccc1 (stereo not shown) [Compound 7-33, 2-(2-chloro-4-fluorophenoxy)-N-hydroxy-2-phenylacetamide]
30 | 4.82 to 6.00 | O=C(NO)C(Oc1ccc(F)c(Cl)c1)c1ccccc1 (stereo not shown) [Compound 7-34, 2-(3-chloro-4-fluorophenoxy)-N-hydroxy-2-phenylacetamide]
31 | 4.82 to 6.00 | Cc1ccc(OC(C(=O)NO)c2ccccc2)c2c1CCC2 (stereo not shown) [Compound 7-35, N-hydroxy-2-(7-methyl-2,3-dihydro-1H-inden-4-yloxy)-2-phenylacetamide]
32 | 4.82 to 6.00 | O=C(NO)C(Oc1ccc2c(c1)CCCC2)c1ccccc1 (stereo not shown) [Compound 7-36, N-hydroxy-2-phenyl-2-(5,6,7,8-tetrahydronaphthalen-2-yloxy)acetamide]
33 | 4.82 to 6.00 | CC(C)(C)c1ccc(OC(C(=O)NO)c2ccccc2)cc1 (stereo not shown) [Compound 7-37, 2-(4-tert-butylphenoxy)-N-hydroxy-2-phenylacetamide]
34 | 4.82 to 6.00 | CCCOc1ccc(OC(C(=O)NO)c2ccccc2)cc1 (stereo not shown) [Compound 7-41, N-hydroxy-2-phenyl-2-(4-propoxyphenoxy)acetamide]
35 | 4.82 to 6.00 | COc1ccc(OC(C(=O)NO)c2ccccc2)cc1OC (stereo not shown) [Compound 7-42, 2-(3,4-dimethoxyphenoxy)-N-hydroxy-2-phenylacetamide]
36 | 4.82 to 6.00 | O=C(NO)C(Oc1ccc(C(F)(F)F)cc1)c1ccccc1 (stereo not shown) [Compound 7-44, N-hydroxy-2-phenyl-2-(4-(trifluoromethyl)phenoxy)acetamide]

Row | Structure (SMILES) | pIC50
37 | Cn1cc(C2CCN(C(C(=O)NO)c3ccccc3)CC2)c2ccccc21 (stereo not shown) [Compound 6-45, N-hydroxy-2-(4-(1-methyl-1H-indol-3-yl)piperidin-1-yl)-2-phenylacetamide] | > 6.00

Source: patent US9096565B2, “Inhibitors of histone deacetylase” (MethylGene Inc., priority 2007, dated 2015)
